In assay [1] the target is T1, human ENT1 (Homo sapiens, UniProt Q99808).
T1 construct: JAR cells expressing ENT1 were purchased from ATCC; host or cells: JAR cells
T1 sequence (Q99808 1-456): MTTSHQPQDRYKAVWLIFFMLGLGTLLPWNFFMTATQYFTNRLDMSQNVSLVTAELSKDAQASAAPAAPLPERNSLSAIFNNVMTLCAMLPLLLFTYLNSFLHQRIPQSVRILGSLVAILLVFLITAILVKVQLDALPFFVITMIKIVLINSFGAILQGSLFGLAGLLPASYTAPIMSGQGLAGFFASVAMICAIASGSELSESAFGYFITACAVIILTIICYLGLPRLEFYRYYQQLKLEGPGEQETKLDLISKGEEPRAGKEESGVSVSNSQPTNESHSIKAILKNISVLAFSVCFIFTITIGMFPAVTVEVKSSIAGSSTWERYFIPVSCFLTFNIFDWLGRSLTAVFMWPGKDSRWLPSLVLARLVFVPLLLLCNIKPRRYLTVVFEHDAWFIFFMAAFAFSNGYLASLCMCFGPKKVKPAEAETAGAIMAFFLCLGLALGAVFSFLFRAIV
The assay can be described thus: ENT1 binding assay (competition with Sahenta-DY647 on JAR cells). The conditions noted are these: competition with SAHENTA-DY647 binding; IC50 categorized; read-out: Binding Assay IC50. An outline of the steps:
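Fluorescent-tracer displacement: compound incubated with JAR cells 30 min, 4 °C, before Sahenta-DY647 (100 nM) for another 30 min, 4 °C, in Hepes-buffered HBSS with 0.1% BSA. Bound tracer read at 670 nm after washes; IC50 from four-parameter fit, reported as mean of pIC50 values.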

Assay [2] deals with stimulated primary human T cells. The assay can be described thus: T cell proliferation assay, Condition A (X-VIVO15). It is filed as cell-based. The conditions noted are these: Homo sapiens, T-cell, 96 h; Condition A: X-VIVO15 medium; anti-CD3/anti-CD28 beads, ATP, 4 days; CFSE-lo T cells. The method, then:
The goal of this study was to determine the potency of ENT1 inhibitors by measuring the rescued proliferation of stimulated primary human T cells incubated in the presence of 100 uM Adenosine triphosphate (ATP), in baseline conditions (condition A) or in the presence of various proteins known to bind small molecules (condition B).
Venous blood from healthy volunteers, all of whom signed an informed consent approved by the Ethics Committee (FOR—UIC—BV-050-01-01 ICF_HBS_HD Version 5.0), was obtained by ImmuneHealth (Centre Hospitalier Universitaire Tivoli, La Louviere, Belgium). Mononuclear cells were collected by density gradient centrifugation, using SepMate-50 tubes (StemCell Technologies, Grenoble, France) and Lymphoprep (Stemcell Technologies) according to the manufacturer's instructions. CD3+ T cells were isolated by immunomagnetic negative selection, using the EasySep Human T Cell Isolation Kit (StemCell Technologies) as per the manufacturer's instructions. CD3+ T cells were stored in heat inactivated FBS (hiFBS; Gibco, ThermoFisher Scientific, Merelbeke, Belgium) and 10% DMSO in liquid nitrogen.
Purified human CD3+ T cells were thawed and washed once with RPMI1640 medium, UltraGlutamine (Lonza, Verviers, Belgium) containing 10% hiFBS. Cells were resuspended in PBS containing 10% hiFBS at 1×10^7 cells/ml. One volume of cells was combined with a matching volume of 2 μM CFSE solution in PBS, mixed well by pipetting, and incubated at room temperature for 5 minutes under rotation and protected from light. Excess CFSE was quenched by addition of PBS containing 10% hiFBS, and the cells were centrifuged (300×rcf, 7 minutes) and resuspended in X-VIVO15. Cells were again centrifuged and resuspended in X-VIVO15 for counting.
Cells were resuspended at 1.6×10^6 cells/mL in X-VIVO15 medium (Condition A) or X-VIVO15 medium containing 4% (v/v) HSA (Sigma-Aldrich, Diegem, Belgium) and 0.2% (v/v) ai-Acid Glycoprotein (Sigma-Aldrich, Diegem, Belgium) (Condition B).
[…] of cell suspension (2×10^4 cells) was added to wells of sterile flat-bottom 384-well plates. Cells were activated by adding […] of anti-CD3 anti-CD28 coated microbeads (Dynabeads human T-activator CD3/CD28; Life Technologies, Paisley, UK) suspended in X-VIVO15 medium or X-VIVO15 medium containing 4% (v/v) HSA and 0.2% (v/v) ai-Acid Glycoprotein at a ratio of one microbead per two cells. Serial dilutions of the ENT1 inhibitors were conducted in X-VIVO15 medium and […] of the diluent was added to the wells. Cells were mixed by pipetting up and down and pre-incubated for 30 minutes in a 37° C. humidified tissue culture incubator with 5% CO2. After pre-incubation, cells were cultured in the presence or absence of ATP (Sigma-Aldrich) at a final concentration of […]. The final well volume was 50 μl in all cases. Experiments were performed in biological duplicates. Cells were mixed by pipetting up and down and incubated for 4 days in a 37° C. humidified tissue culture incubator with 5% CO2.
Samples were run on a BD LSR Fortessa FACS machine (BD FACSDiva Software v9.0.1). Data were analyzed using FlowJo (BD, v10.7.1). T cell proliferation was determined by measuring the frequency of ‘CFSE^lo’ (i.e. CFSE-diluted).
T cell proliferation data were analyzed using FlowJo software (Version 10.6.2). Dead cells and cellular debris were excluded on the basis of forward and side scatter profile and singlet cells were selected for further analysis.
T cell proliferation was determined based on the percent CFSE^lo total T cells for each condition. The data were plotted on the y-axis against log molar (M) concentration of ENT1 inhibitors on the x-axis in GraphPad Prism (version 9.0.0). IC50 and IC90 values were generated with the ‘log(agonist) vs. response—Find ECanything(F))’ function with F constrained to 50 or 90, respectively. pICF values were generated by taking the −logECF values.

For assay [3] the test system is unchanged. Kind of assay: T cell proliferation assay, Condition B (X-VIVO15, 2% HSA and 0.1% AAG). It is filed as cell-based. The conditions noted are these: Homo sapiens, T-cell, 96 h; Condition B: X-VIVO15 medium containing HSA and α1-Acid Glycoprotein; anti-CD3/anti-CD28 beads, ATP, 4 days; CFSE-lo T cells. In short, it runs like this:
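CFSE-labelled CD3+ T cells from healthy donors (2×10^4/well) in X-VIVO15 with 2% HSA and 0.1% AAG were stimulated with anti-CD3/CD28 beads. After 30 min pre-incubation with inhibitor, ATP was added and cells were cultured 4 days at 37° C. Flow cytometry gave % CFSE^lo cells, with IC50/IC90 and pICF from curve fits.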

As a reminder, the IC50 is the concentration that gives 50% inhibition. For the compound `C[C@H]1O[C@@H](n2cnc3c(SCc4ccc(C#N)cc4)ncnc32)[C@H](O)[C@@H]1O` [Compound 165], the IC50 in assay [1] was 20 to 500 nM; in assay [2] it was 1 to 20 nM; in assay [3] it was > 500 nM.

As to `C[C@H]1O[C@@H](n2cnc3c(OCc4ccc(C#N)c(F)c4)ncnc32)[C@H](O)[C@@H]1O` [Compound 174], the IC50 in assay [1] is 20 to 500 nM; in assay [2], 1 to 20 nM; in assay [3] it was > 500 nM.

As for `C[C@H]1O[C@@H](n2cnc3c(SCc4ccc(OC(F)F)cc4)ncnc32)[C@H](O)[C@@H]1O` [Compound 176], the IC50 in assay [1] was 20 to 500 nM; in assay [2], 1 to 20 nM; in assay [3], > 500 nM.

Turning to `C[C@H]1O[C@@H](n2cnc3c(N(C)Cc4ccc([N+](=O)[O-])cc4)ncnc32)[C@H](O)[C@@H]1O` [Compound 177], the IC50 is 20 to 500 nM in assay [1], 20 to 500 nM in assay [2] and > 500 nM in assay [3].

In the case of `C[C@H]1O[C@@H](n2cnc3c(OCc4ccc(OC(F)(F)F)cc4)ncnc32)[C@H](O)[C@@H]1O` [Compound 180], the values for the IC50 in assay [1], in assay [2] and in assay [3] were 20 to 500 nM, 1 to 20 nM and > 500 nM, respectively.

Regarding `C[C@H]1O[C@@H](n2cnc3c(OCc4ccc(C(F)F)cc4)ncnc32)[C@H](O)[C@@H]1O` [Compound 182], the half-inhibitory concentration (IC50) was 20 to 500 nM in assay [1], 1 to 20 nM in assay [2] and > 500 nM in assay [3].

Take `C[C@H]1O[C@@H](n2cnc3c(NCc4ccc([N+](=O)[O-])cc4)ncnc32)[C@H](O)[C@@H]1O` [Compound 185]: the IC50 in assay [1] was 20 to 500 nM; in assay [2] it was 20 to 500 nM; in assay [3], > 500 nM.

In the case of `Cc1nc(-c2ccc(CSc3ncnc4c3ncn4[C@@H]3O[C@H](C)[C@@H](O)[C@H]3O)cc2)no1` [Compound 186], the IC50 in assay [1] is 20 to 500 nM; in assay [2], 1 to 20 nM; in assay [3], > 500 nM.

For `C[C@H]1O[C@@H](n2cnc3c(OCc4ccc(Cl)cc4)ncnc32)[C@H](O)[C@@H]1O` [Compound 187], the 50% inhibitory concentration (IC50) was 20 to 500 nM in assay [1], 1 to 20 nM in assay [2] and > 500 nM in assay [3].

Regarding `C[C@H]1O[C@@H](n2cnc3c(OCCc4ccc(C#N)nn4)ncnc32)[C@H](O)[C@@H]1O` [Compound 188], the results for the IC50 in assay [1], in assay [2] and in assay [3] were 20 to 500 nM, 1 to 20 nM and > 500 nM, respectively.

On to `CC(=O)NC[C@H]1O[C@@H](n2cnc3c(SCc4ccc([N+](=O)[O-])cc4)ncnc32)[C@H](O)[C@@H]1O` [Compound 189], for which the IC50 was 20 to 500 nM in assay [1], 1 to 20 nM in assay [2] and > 500 nM in assay [3].

As for `C[C@H]1O[C@@H](n2cnc3c(OCc4ccc(OC(F)F)cc4)nc(N)nc32)[C@H](O)[C@@H]1O` [Compound 190], the IC50 in assay [1] was 20 to 500 nM; in assay [2], 1 to 20 nM; in assay [3], > 500 nM.

Consider `Cc1cc(COc2ncnc3c2ncn3[C@@H]2O[C@H](C)[C@@H](O)[C@H]2O)ccc1[N+](=O)[O-]` [Compound 193], for which the IC50 in assay [1] is 20 to 500 nM; in assay [2], 20 to 500 nM; in assay [3], > 500 nM.

On to `C[C@H]1O[C@@H](n2cnc3c(N4CCc5cc([N+](=O)[O-])ccc5C4)ncnc32)[C@H](O)[C@@H]1O` [Compound 196], for which the values for the IC50 in assay [1], in assay [2] and in assay [3] were 20 to 500 nM, 1 to 20 nM and > 500 nM, respectively.

As for `NC(=O)COC[C@H]1O[C@@H](n2cnc3c(OCCc4ccc([N+](=O)[O-])cc4)ncnc32)[C@H](O)[C@@H]1O` [Compound 199], the IC50 is 20 to 500 nM in assay [1], 20 to 500 nM in assay [2] and > 500 nM in assay [3].

With `C[C@H]1O[C@@H](n2cnc3c(OCc4cc(F)c(F)c(F)c4)ncnc32)[C@H](O)[C@@H]1O` [Compound 200], the figures for the IC50 in assay [1], in assay [2] and in assay [3] were 20 to 500 nM, 1 to 20 nM and > 500 nM, respectively.

As to `O=[N+]([O-])c1ccc(CCOc2ncnc3c2ncn3[C@@H]2O[C@H](COCCO)[C@@H](O)[C@H]2O)cc1` [Compound 203], the IC50 in assay [1] was 20 to 500 nM; in assay [2], 1 to 20 nM; in assay [3] it was > 500 nM.

These data come from patent US20260184712A1, “Heterocyclic Compounds as ENT Inhibitors and Compounds for Use in the Treatment of Cancers” (iTeos Belgium SA, priority 2022, published 2026).
